Data reported in US5512573A, “Use of phthaloylhydrazide derivatives as anti-hypoxic and defensive agents” (priority 1993, dated 1996).
Where a name gives a salt, the structure may show the parent alone.

Legend:
[1] = system: myocardial ischemia in rats; experiment: Example 3: myocardial ischemia with restored circulation in rats; assay type: in vivo
Protocol: Experiments were performed on 60 previously prepared rats. Thirty days before the start of the main experiment, a part of the coronary artery was tied off.
Next, after having supplied light anesthesia, we created by means of the obstruction of the vessel a massive hearth of myocardial ischemia.
We administered the sodium salt intravenously in doses of 30, 100, 200 and 250 mg per kilogram of body weight, immediately after having released the tie. In the control group, the rats were administered a physiological solution, while the test group was given the antioxidant Dibunolo (20% oily solution in a dose of 30 mg/kg).

[2] = system: brain ischemia (carotid tying) in mice; experiment: Example 4: carotid tying and release in mice; assay type: in vivo; details: control mortality 50%
Protocol: We performed experiments on 50 mice of the pyramid by tying the carotid under light anesthesia. After 7 minutes, we released the tie and restored the blood circulation in the ischemic area.

[3] = Summary of experiments on phthaloylhydrazide derivatives; assay type: in vivo; details: for pharmacological activity, anti-hypoxic and defensive action: doses of 10 to 300 mg/kg
[4] = system: Sprague-Dawley rats; details: use to decrease serum cholesterol levels; cited from earlier work
[5] = system: hypoxia in mice; experiment: Example 1: resistance of mice to hypoxia (altitude of 10,400 meters); assay type: in vivo; details: control 41±2.5, sodium salt at 60 to 80 mg/kg
Protocol: We assessed the pharmacological activity on the basis of the resistance of the animals to hypoxia. […] We administered the drug intravenously in doses of 10 to 300 mg, in 0.1 ml of physiological solution. In some cases, because of poor solubility, we injected the derivatives in the form of suspensions. The control animals received 0.1 ml of physiological solution.

[6] = system: leukocytes; details: in vivo
[7] = system: hypoxia
[8] = system: leukocytes in ischemic tissue; surviving animals
[9] = system: ethane and pentane contents of the air inhaled by the animals; details: change in ethane and pentane contents
[10] = morphological analysis, test group

With `Cc1cc(C(C)(C)C)c(O)c(C(C)(C)C)c1` [Dibunolo, reference compound] the survival rate ([1]; Dibunolo 20% oily solution, 30 mg/kg, p>0.05) was “tendency toward rising survival rates of the animals, but the results obtained were not reliable” and the prevention of mortality [2] was “not entirely prevented”.

In the case of “4-methyl-4,5-diamino-2,3 dihydrophthalazine-1,2 dione”, the “pharmacological activity, anti-hypoxic and defensive action” value (from here on “pharmacological activity”) [3] was “possess a pronounced pharmacological activity”.

For `O=c1[nH][nH]c(=O)c2ccccc12` [Phthaloylhydrazide, 2,3 dihydrophthalazine-1,4 dione], the “pharmacological activity” value [3] is listed as “possess a pronounced pharmacological activity” and the toxicity [4] is listed as “certain signs of toxicity”.

In the case of `Nc1ccc2c(=O)[nH][nH]c(=O)c2c1` [4-aminophthaloylhydrazide], the therapeutic effects ([3]; in vivo) was “major therapeutic effects”.

With dimethyldiaminophthaloylhydrazide the “life span of the animals” value [5] was 89 ± 12 s.

For “4,5-amino-2,3- dihydrophthalazine-1,2 dione [4,5-aminophthaloylhydrazide]”, the “pharmacological activity” value [3] was “possess a pronounced pharmacological activity”.

With `Nc1cccc2c(=O)[nH][nH]c(=O)c12` [sodium salt of 5-aminophthaloylhydrazide, sodium salt of 5-amino-2,3-dihydrophthalazine-1,2 dione] the “signs of a therapeutic effect” value ([1]; 30 mg/kg i.v.) was “clear signs of a therapeutic effect”, the prevention of death ([1]; 30 mg/kg i.v., p>0.05) was “did not prevent the death of the animals” and the “number of surviving animals” value ([1]; 100 mg/kg and beyond, i.v., p<0.01-0.001) was “increase in the number of surviving animals”. For the same compound, the “damaged area of myocardium” value [1, 10] was “the damaged area could not be perceived visually”, the “necrotic hearths in myocardium” value [1, 10] was “The tiny necrotic hearths were few and diffused” and the “adhesion capacity of the leukocytes” value [6] was “drop in the adhesion capacity of the leukocytes”. The “life span of the animals” value [5] was 222 ± 45 s, the “anti-hypoxic activity vs antioxidants (Dibunolo, histidine, Organeia, etc.)” value ([7]; 60 to 80 mg) was “exceeds that of antioxidants used thus far in medical practice” and the “anti-hypoxic effect on further dose increase” value ([7]; beyond 100 mg/kg) was “the effect does not basically increase”. The “percentage of surviving animals” value ([8]; experimental group, intravenous, p<0.01) was 80%, the “increase of leukocyte levels in the blood” value ([8]; one time i.v. 150 to 250 mg/kg) was 2.5 times and the “previously penetrated leukocytes eliminated” value ([8]; one time i.v. 150 to 250 mg/kg, after 6 hours) was 75%. The “antioxidant action in vivo” value [9] was “antioxidant action in vivo”.

For `N[C@@H](Cc1c[nH]cn1)C(=O)O` [histidine, reference compound], the prevention of mortality [2] was “not entirely prevented”.
